This note sets out measurements from US8664249B2, “Tetrasubstituted benzenes” (EnVivo Pharmaceuticals, Inc., priority 2007, dated 2014).

One data set has as its target γ-secretase (Homo sapiens, UniProt P49768). The data set can be described thus: Aβ42 lowering in HEK-293 cells overexpressing APP (ELISA of conditioned medium). Type of data set: cell-based. (In general: An ELISA detects its analyte on a solid surface through an enzyme-linked reagent.)
In the next data set the test system is Aβ. The data set can be described thus: In vivo Aβ lowering in C57BL/6 mice (FIG. 1). The conditions noted are these: one dose at 30 mg/kg in Solutol HS 15:Ethanol:Water (15:10:75), Aβ measured at 3 hours. Details: species or system mouse. From the text:
Practitioners will also know that similar methods can also be applied to other species such as mice (including transgenic strains such as Tg2576), guinea pig, dog and monkey.

pEC50: −log10 of the molar value. Where only a bound is given, the exact number is not on record here.

Protocol for γ-secretase: Transfected cells overexpressing β-APP or its equivalent producing the Aβ peptide can be used to monitor the effects of synthetic compounds on the production of Aβ.
To analyze a compound's effects on the concentrations of the various products of the γ-secretase cleavage activity, the Aβ peptides, various methods known to a person skilled in the art are available.
Cells were grown to approximately 70-80% confluency subsequent to the addition of test compounds. The growth media was aspirated or removed, the cells washed, and replaced with 100 μl of compound, appropriately diluted in serum free media. The plates are then incubated for 16-18 hours at 37° C.
Conditioned Medium samples are removed for analysis/quantitation of the various Aβ peptide levels by differential ELISA's as described in accompanying instructions to the kits.

Compound `CC(C)CC(C(=O)O)c1cc(Cl)c(-c2ccc(Cl)c(Cl)c2)c(OCC2CC2)c1` (centres unmarked) [Example 3201, 4-Methyl-2-(2,3′,4′-trichloro-6-cyclopropylmethoxy-biphenyl-4-yl)-pentanoic acid] showed a melting point of 118 to 119 °C.
The compound `CC(C)CC(C(=O)O)c1cc(Cl)c(-c2ccc(Cl)cc2)c(OCC2CC2)c1` (centres unmarked) [Example 3200, 2-(2,4′-Dichloro-6-cyclopropylmethoxy-biphenyl-4-yl)-4-methyl-pentanoic acid] gave a melting point of 52 to 53 °C.
On the same count and under the same terms, the value for `CC(C)CC(C(=O)O)c1cc(OCC2CC2)c(-c2ccc3nonc3c2)cc1F` (centres unmarked) [Example 754, 2-(4-(benzo[c][1,2,5]oxadiazol-5-yl)-5-(cyclopropylmethoxy)-2-fluorophenyl)-4-methylpentanoic acid] was 110 to 111 °C; that for `CC(C)CC(C(=O)O)c1cc(OCC2CC2)c(-c2ccc(C(F)(F)F)cc2)cc1F` (centres unmarked) [Example 724, 2-(2-cyclopropylmethoxy-5-fluoro-4′-trifluoromethyl-biphenyl-4-yl)-4-methyl-pentanoic acid] was 110 to 111 °C.
Turning to `O=C(O)C1(c2cc(Cl)c(-c3ccc(C(F)(F)F)cc3)c(OCC(F)(F)F)c2)CCCC1` [Example 1837, 1-(2-chloro-6-(2,2,2-trifluoroethoxy)-4′-(trifluoromethyl)biphenyl-4-yl)cyclopentanecarboxylic acid], the negative logarithm of the EC50 (pEC50) on γ-secretase is over 6.00.
In turn, `CC(C)CC(C(=O)O)c1cc(Cl)c(-c2ccc(C(F)(F)F)cc2)c(OCC2CC2)c1` (centres unmarked) [Example 1904, 2-(2-Chloro-6-cyclopropylmethoxy-4′-trifluoromethyl-biphenyl-4-yl)-4-methyl-pentanoic acid] returned a melting point of 115 to 116 °C.
The same measure, in the same setting: the value for `CC(C)CC(C(=O)O)c1cc(-c2ccc(C(F)(F)F)cc2)c(OCC2CC2)c(C(F)(F)F)c1` (centres unmarked) [Example 1055, 2-(6-Cyclopropylmethoxy-5,4′-bis-trifluoromethyl-biphenyl-3-yl)-4-methyl-pentanoic Acid] was 148 to 149 °C.
In the case of `CC(C)c1ccc(-c2cc(C(CC3CC3)C(=O)O)cc(Cl)c2OCC(F)(F)F)cc1` (centres unmarked) [Example 1301, 2-(5-chloro-4′-isopropyl-6-(2,2,2-trifluoroethoxy)biphenyl-3-yl)-3-cyclopropylpropanoic acid], the “effect on Aβ after administration” value with Aβ is on record as “desirable effect on Aβ”.

The term melting point denotes the temperature of the solid-liquid transition. Broadly, the pEC50 is −log10 of the EC50, conventionally taken in molar units.
